Reference: patent publication US9415096B2 (priority 2007, dated 2016)
Ends that are not written are not given here.

Assays:
panc-1 cells = experiment: Cytotoxicity test (chromium release assay) of peptide-induced killer T cells against panc-1; settings: for HLA-A2 restricted and FOXM1-specific cytotoxic activity of induced killer T cells: chromium release assay, panc-1 (HLA-A2 positive) versus PK-8 (HLA-A2 negative); for cytotoxic activity against panc-1 cells: killer T cells from breast cancer patients induced with the peptide, panc-1 HLA-A2 positive, FOXM1-expressing
PK-8 cells = experiment: Cytotoxicity test (chromium release assay) of peptide-induced killer T cells against PK-8; settings: killer T cells from breast cancer patients induced with the peptide; PK-8 HLA-A2 negative, FOXM1 positive

Sequence | HLA-A2 restricted and FOXM1-specific cytotoxic activity of induced killer T cells (panc-1 cells) | cytotoxic activity against panc-1 cells (panc-1 cells) | cytotoxic activity against PK-8 cells (PK-8 cells)
SLVLQPSVKV [FOXM1 373-382, SLVLQPSVKV] | HLA-A2 restricted and FOXM1-specific cytotoxic activity was observed | strong cytotoxic activity | did not show cytotoxic activity
GLMDLSTTPL [FOXM1 640-649, GLMDLSTTPL] | HLA-A2 restricted and FOXM1-specific cytotoxic activity was observed | strong cytotoxic activity | did not show cytotoxic activity
YLVPIQFPV [FOXM1 362-370, YLVPIQFPV] | HLA-A2 restricted and FOXM1-specific cytotoxic activity was observed | strong cytotoxic activity | did not show cytotoxic activity
